Data on four molecules can be found in US20110207744A1, “Method for treating cognitive deficits” (H. Lundbeck A/S, priority 2008, published 2011).

Experiment [1] has as its system sub-chronic PCP treated rats. Nature of the experiment: novel object recognition (NOR) test in sub-chronic PCP treated rats. In kind it is in vivo, rat. The method, then: The NOR test was performed as described in the above cited reference (Grayson 2007).
Acquisition trial. […] Data are expressed as mean±s.e.m. (n=9-10 per group) and were analysed by ANOVA and post-hoc student's t-test.
Retention trial. […] Data are expressed as mean±s.e.m. (n=9-10 per group) and were analysed by ANOVA and post-hoc student's t-test.
Data are expressed as the mean±s.e.m. (n=9-10 per group) and were analysed using ANOVA followed by post-hoc Dunnett's t-test.
Locomotor activity. […] Data are expressed as mean±s.e.m (n=9-10 per group) and were analysed by ANOVA and post-hoc Dunnett's t-test.

In experiment [2] the test system is subchronic PCP treated rats. Conditions: given acutely; Rodefer et al. (2008); cited from earlier work.
For another experiment, the target named is dopamine D2 receptors (Homo sapiens, UniProt P14416). As to conditions: WO 2005/016900; cited from earlier work.
The next experiment has as its target D2 receptor (Homo sapiens, UniProt P14416). In words: PET study, D2 receptor occupancy (11C-raclopride tracer). The format is in vivo. Conditions: healthy subjects, read-out: D2 receptor occupancy in the putamen.
The subject of another experiment is rats. In words: condition avoidance response (CAR) model. The format is in vivo, rat. Conditions: at very low levels of D2 receptor occupancy. From the text: The compound of formula I is a putative antipsychotic compound with affinity for both dopamine D1 and D2 receptors.
A further experiment has as its target D1 receptor (Homo sapiens, UniProt P21728). Nature of the experiment: PET study, D1 receptor occupancy (11C-SCH23390 tracer). In kind it is in vivo. Conditions: healthy subjects, read-out: D1 receptor occupancy in putamen.
The target of another experiment is dopamine D1 receptors (Homo sapiens, UniProt P21728). Conditions: WO 2005/016900; cited from earlier work.
A further experiment has as its system α1 adrenoceptors. Conditions: WO 2005/016900; cited from earlier work.
The next experiment concerns 5-HT2 receptor. As to conditions: WO 2005/016900; cited from earlier work.
For experiment [3], the system named is subchronic PCP treated rats. Nature of the experiment: attentional set-shifting in subchronic PCP rat disease model (executive functioning). Conditions: for EDS discrimination performance (trials to criterion) vs PCP+vehicle group: 30 min before test. The format is in vivo.
Excerpt: The attentional set-shifting paradigm is an animal model which allows assessment of executive functioning via intra-dimensional (ID) versus extra-dimensional (ED) shift discrimination learning. A schizophrenia-disease-like animal model with subchronic phencyclidine (PCP) administration plus washout period is applied.
Accordingly, the cognitive enhancing properties of a compound can be investigated by testing whether the compound is attenuating the “attentional performance impairment” induced by subchronic PCP administration in rats.
Methodology. In vivo assessment of “attentional set-shifting performance” was conducted as described by Rodefer et al. (Eur. J. Neurosci. 21:1070-1076 (2005)), and was based on a modified version of the task designed by Birrell & Brown (J. Neurosci. 20:4320-4324 (2000)). Briefly, Male Long-Evans rats (Harlan, Indianapolis, Ind.) weighing approximately 250 g at the beginning of the study in four groups (n=12 each group) were used. After habituating to the colony room environment, rats received a series of subchronic injections of PCP (5 mg/kg, i.p.) or saline twice daily for 7 days, followed by a washout period of 10 days before beginning the set-shifting procedure in which animals were required to dig in a pot to retrieve a food reward (half of a Honey Nut Cheerio® (General Mills, Minneapolis, Minn., USA)) using either digging medium or scented odor as the dimensional cue. The test chamber was a Plexiglas® box (50×37.5×25 cm) with an opaque barrier separating one-third of the box from the rest (along the long axis of the box). […]
Habituation was performed for several days before testing; a pot filled with wood chip bedding used in the rats' home cages and baited with several Cheerios® was placed in each rat's cage, to accustom them to retrieving food rewards from the pots. […] The rats therefore could investigate the digging medium with paws or snout before executing a “dig” response, and these choices were not scored. […]
The mark [4] stands for this setting: 2 mg/day given daily for 18 days.
The mark [5] stands for this setting: 10 mg/day given daily for 18 days.

Sequence of D2 receptor (P14416 whole entry): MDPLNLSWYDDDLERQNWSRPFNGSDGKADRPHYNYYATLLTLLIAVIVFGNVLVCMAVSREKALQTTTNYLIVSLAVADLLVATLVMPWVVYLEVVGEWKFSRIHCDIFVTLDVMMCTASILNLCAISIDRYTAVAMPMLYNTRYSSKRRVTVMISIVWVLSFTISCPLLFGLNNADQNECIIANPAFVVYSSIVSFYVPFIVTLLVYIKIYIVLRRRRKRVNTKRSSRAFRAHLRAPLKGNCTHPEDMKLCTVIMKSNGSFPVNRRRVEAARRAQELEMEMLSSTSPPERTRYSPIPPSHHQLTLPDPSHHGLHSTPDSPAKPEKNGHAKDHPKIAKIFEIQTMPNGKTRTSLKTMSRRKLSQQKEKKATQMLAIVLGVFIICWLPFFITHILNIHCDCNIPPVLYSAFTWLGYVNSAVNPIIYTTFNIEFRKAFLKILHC
Sequence of D1 receptor (P21728 whole entry): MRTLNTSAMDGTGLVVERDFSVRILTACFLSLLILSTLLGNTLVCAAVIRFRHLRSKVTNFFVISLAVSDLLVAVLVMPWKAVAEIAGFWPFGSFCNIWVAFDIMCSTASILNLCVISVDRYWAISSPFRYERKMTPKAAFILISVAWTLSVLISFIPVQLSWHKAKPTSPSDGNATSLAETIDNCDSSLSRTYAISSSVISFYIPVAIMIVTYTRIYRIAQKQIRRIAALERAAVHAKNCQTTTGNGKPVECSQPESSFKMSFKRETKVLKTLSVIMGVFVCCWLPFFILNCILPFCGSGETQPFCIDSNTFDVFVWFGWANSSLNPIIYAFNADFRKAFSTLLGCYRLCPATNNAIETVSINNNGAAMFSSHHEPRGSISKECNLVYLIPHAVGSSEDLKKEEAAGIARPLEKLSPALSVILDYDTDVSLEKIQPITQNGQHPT
Sequence of dopamine D2 receptors (P14416 whole entry): as the sequence (P14416 whole entry) above
Sequence of dopamine D1 receptors (P21728 whole entry): as the sequence (P21728 whole entry) above

For `CN1CCN(C2=Nc3cc(Cl)ccc3Nc3ccccc32)CC1` [clozapine, reference compound], in experiment [1] (2.5 mg/kg i.p.), the “PCP-induced reduction of discrimination index” value is listed as “no significant effect”.

For the molecule `O=C(CCCN1CCC(O)(c2ccc(Cl)cc2)CC1)c1ccc(F)cc1` [haloperidol], the “reversing PCP-disrupted attentional performance” value in [2] is listed as “ineffective”.

In the case of `Cc1nc2n(c(=O)c1CCN1CCC(c3noc4cc(F)ccc34)CC1)CCCC2` [risperidone], in experiment [2], the “reversing PCP-disrupted attentional performance” value is recorded as “ineffective”.

Take `CN1CCN([C@@H]2C[C@@H](c3ccccc3)c3ccc(Cl)cc32)CC1(C)C` [Compound I, trans-4-((1R,3S)-6-chloro-3-phenylindan-1-yl)-1,2,2-trimethylpiperazine]: at dopamine D2 receptors, the “affinity for dopamine D2 receptors (antagonist)” value is “high affinity”. In addition, the receptor occupancy at 2 mg turned out to be 11% on D2 receptor (setting [4]) and 32% on D1 receptor (setting [4]). For the same molecule, the receptor occupancy at 10 mg on D2 receptor (setting [5]) was determined as 43%; on D1 receptor (setting [5]), 69%. The “locomotor activity (total number of line crossings)” value in experiment [1] (2.5 mg/kg s.c., p<0.05 compared to vehicle) is reported as “significantly reduced”. The “time spent exploring the identical objects, acquisition phase” value in experiment [1] (acute 0.5-2.5 mg/kg s.c.) was “no significant difference”. In [1] (acute, all three doses 0.5, 1.25, 2.5 mg/kg s.c.), the “sub-chronic PCP-induced impairment, novel vs familiar object exploration, retention phase” value is recorded as “significantly attenuated”. Further, the “antipsychotic activity in CAR model” value in the experiment on rats was “possesses antipsychotic activity”. The “affinity for dopamine D1 receptors (antagonist)” value on dopamine D1 receptors is given as “high affinity”. The “affinity for α1 adrenoceptors” value in the experiment on α1 adrenoceptors is reported as “high affinity”. For the same molecule, the “affinity for the 5-HT2 receptor (antagonist)” value with 5-HT2 receptor is “high affinity”. In addition, the “EDS discrimination performance (trials to criterion) vs PCP+vehicle group” value is on record as “significantly attenuated” in [3] (1.25 mg/kg s.c., t=3.09, p<0.05) and “significantly attenuated” in [3] (2.5 mg/kg s.c., t=3.80, p<0.01). For the same molecule, the “behavior on all other discrimination problems” value in experiment [3] (1.25 or 2.5 mg/kg s.c., all ps>0.05) was “No evidence was found that either dose of Compound I impacted behavior”.
